# PubChem BioAssay AID1963426 (Molecular Pharmacology Branch, DTP, NCI, 2024)
# Tested on: 186277-243-T-J2-PDC complex spheroid growth, % test/control
# Assay: Anticancer human tumor 186277-243-T-J2-PDC patient-derived colon adenocarcinoma cell line growth inhibition [Asc]
# Conditions: for IC50: curve of first compound; for viability, T/C: stronger effect = lower value
# Procedure: Multicellular complex tumor spheroid response to apoptosis pathway targeting inhibitors Alrizomadlin, Pelcitoclax, and Dasminapant in combination with a variety of drugs and investigational agents in selected tumor cell lines
# The MDM2 inhibitor alrizomadlin, the Bcl-2/Bcl-xL inhibitor pelcitoclax, and the IAPs inhibitor dasminapant were evaluated both individually and in combination with standard of care and investigational anticancer small molecules within a complex spheroid model of solid tumors. . Complex spheroids include a stromal component modeled by human endothelial cells (HUVEC) and fibroblasts modeled by human mesenchymal stem cells (MSCs). The concentration ranges selected for each drug and investigational agent were based upon clinically achievable concentrations if the clinical Cmax of the agent was known.
# Compounds. The drugs and investigational agents: alrizomadlin (APG-115; NSC831270), pelcitoclax (APG-1252; NSC835773), dasminapant (APG-1387;NSC834197), TAK-243 (NSC785004), copanlisib (NSC809693), olaparib (NSC753686), talazoparib (NSC767125), cobimetinib (NSC 768068), eltanexor (KPT-8602, NSC 794443), abemaciclib (NSC 768073), sotorasib (NSC818433), adagrasib (NSC 831453), MRTX-1133 (NSC 836407), Iadademestat (ORY1001, NSC 806812), and RMC-4630 (NSC839698), were obtained from the NCI Developmental Therapeutics Program Chemical Repository. The FDA-approved anticancer drug set is available from the Developmental Therapeutics Program at https://dtp.cancer.gov/organization/dscb/obtaining/available plates.htm. […] The stock solutions were prepared in dimethyl sulfoxide (DMSO, Sigma-Aldrich, St. Louis, MO, cat. D2650) at 800-fold the tested concentration and stored at -70 degrees C prior to their use. All drugs and investigational agents were tested over a range starting from a high concentration at or near the clinical Cmax and decreasing in half-log increments. If the clinical Cmax for an agent had not been determined, the highest concentration tested was 10 microM.
# The patient-derived cancer (PDC) cell lines include five colon adenocarcinomas: 186277-243-T-J2-PDC, 616215-338-R-J1-PDC, 439559-082-T-J2-PDC, 463943-066-T-J2-PDC, and 519858-162-T-J1-PDC; three pancreatic carcinomas: 323965-272-R-J2-PDC, 521955-158-R6-J3-PDC, and 521955-158-R2-J5-PDC; two uterine sarcomas: 327498-152-R-J2-PDC and 993429-296-R-J1-PDC; two rhabdomyosarcomas: 755483-174-R-J1-PDC and 772245-204-R-J1-PDC; two soft tissue sarcomas: 126254-015-R-J1-PDC and 494315-158-R-J1-PDC; two malignant fibrous histiocytomas: 317291-083-R-J1-PDC and 596521-263-R-J1-PDC; two breast carcinomas: 171881-019-R-J1-PDC and 885512-296-R-J2-PDC; and one ovarian carcinoma: 6556581-035-R-J-PDC were obtained from the NCI PDMR, (https://pdmr.cancer.gov). The established cell lines HSSY-2 synovial sarcoma (RRID:CVCL 8719), SYO-1 synovial sarcoma (RRID:CVCL_7146), MPNST malignant peripheral neural sheath tumor were obtained from the Sloan Kettering Institute. The following established cell lines were purchased from the American Type Culture Collection (ATCC, Manassas, VA), Sor the received from the NCI repository:, PANC-1 pancreatic carcinoma (CRL-1469, RRID:CVCL_0480), OVCAR-5 ovarian carcinoma (RRID:CVCL_1628), OVCAR-8 ovarian carcinoma (RRID:CVCL_1629), , MCF-7 breast carcinoma (CRL-12584, RRID:CVCL_0031), MDA-MB-231 breast carcinoma (CRL-12532, RRID:CVCL_0062), NCI-H1876 small cell lung carcinoma (CRL-5902, RRID:CVCL_1503), NCI-H510A small cell lung carcinoma (HTB-184, RRID:CVCL_1565), NCI-H1417 (CRL-5869, RRID:CVCL_1469), and NCI-H196 small cell lung carcinoma (CRL-5823, RRID:CVCL_1509). Dr. Peter Houghton (Greehey Children's Cancer Research Institute, University of Texas Health Science Center, San Antonio, TX) provided Rh-18 rhabdomyosarcoma (RRID:CVCL_1659). Pooled donor human umbilical vein endothelial cells (HUVEC, Lonza, cat. CC-2519) and human mesenchymal stem cells (hMSC, Lonza, cat. PT-2501) were purchased from Lonza (Walkersville, MD).
# Cell Culture. […]
# 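Further: spheroids exposed to agents for 7 days.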
# 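Wherever viability, T/C is given: 100% = DMSO vehicle control wells.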
structure (smiles),measurement,setting,value
C#Cc1c(F)ccc2cc(O)cc(-c3ncc4c(N5CC6CCC(C5)N6)nc(OCC56CCCN5CC(F)C6)nc4c3F)c12 (stereo not given) + CCN1C(C(=O)NC23CCC(C(=O)O)(CC2)CC3)C(c2cccc(Cl)c2F)C2(C(=O)Nc3cc(Cl)ccc32)C12CCCCC2,IC50,second compound 0.03 µM,119 nM
same,IC50,second compound 0.0949 µM,35.4 nM
same,IC50,second compound 0.3 µM,< 31.6 nM
same,IC50,second compound 0.949 µM,< 31.6 nM
same,IC50,second compound 3 µM,< 31.6 nM
same,"viability, T/C","second compound 0.03 µM, first compound 0.0316 µM",57.1%
same,"viability, T/C","second compound 0.03 µM, first compound 0.1 µM",55.3%
same,"viability, T/C","second compound 0.03 µM, first compound 0.316 µM",24.1%
same,"viability, T/C","second compound 0.03 µM, first compound 1 µM",7.49%
same,"viability, T/C","second compound 0.03 µM, first compound 3.16 µM",4.76%
same,"viability, T/C","second compound 0.03 µM, first compound 10 µM",2.76%
same,"viability, T/C","second compound 0.0949 µM, first compound 0.0316 µM",52.6%
same,"viability, T/C","second compound 0.0949 µM, first compound 0.1 µM",26.3%
same,"viability, T/C","second compound 0.0949 µM, first compound 0.316 µM",7.13%
same,"viability, T/C","second compound 0.0949 µM, first compound 1 µM",3.79%
same,"viability, T/C","second compound 0.0949 µM, first compound 3.16 µM",2.21%
same,"viability, T/C","second compound 0.0949 µM, first compound 10 µM",2.17%
same,"viability, T/C","second compound 0.3 µM, first compound 0.0316 µM",27.4%
same,"viability, T/C","second compound 0.3 µM, first compound 0.1 µM",8.1%
same,"viability, T/C","second compound 0.3 µM, first compound 0.316 µM",3.14%
same,"viability, T/C","second compound 0.3 µM, first compound 1 µM",2.06%
same,"viability, T/C","second compound 0.3 µM, first compound 3.16 µM",1.62%
same,"viability, T/C","second compound 0.3 µM, first compound 10 µM",1.41%
same,"viability, T/C","second compound 0.949 µM, first compound 0.0316 µM",16.2%
same,"viability, T/C","second compound 0.949 µM, first compound 0.1 µM",5.72%
same,"viability, T/C","second compound 0.949 µM, first compound 0.316 µM",2.81%
same,"viability, T/C","second compound 0.949 µM, first compound 1 µM",2.32%
same,"viability, T/C","second compound 0.949 µM, first compound 3.16 µM",1.53%
same,"viability, T/C","second compound 0.949 µM, first compound 10 µM",1.08%
same,"viability, T/C","second compound 3 µM, first compound 0.0316 µM",7.02%
same,"viability, T/C","second compound 3 µM, first compound 0.1 µM",3.62%
same,"viability, T/C","second compound 3 µM, first compound 0.316 µM",2.69%
same,"viability, T/C","second compound 3 µM, first compound 1 µM",2.2%
same,"viability, T/C","second compound 3 µM, first compound 3.16 µM",1.71%
same,"viability, T/C","second compound 3 µM, first compound 10 µM",1.33%
